Data reported in ChEMBL document CHEMBL1121596, “Metabolic beta-hydroxylation and N-oxidation of N'-nitrosonornicotine” (J Med Chem, 1980).

Species: Rattus norvegicus
Experiment: Rate of formation of compound by F-344 rat liver microsomes
Type: ADME

SMILES	Rate
O=C(CCCO)c1cccnc1	0.4 nmol/min/mg
O=NN1CCCC1c1ccc[n+]([O-])c1 (stereo not given)	0.57 nmol/min/mg
O=NN1CCC(O)C1c1cccnc1 (stereo not given)	< 0.01 nmol/min/mg
O=NN1CC(O)CC1c1cccnc1 (stereo not given)	< 0.01 nmol/min/mg
OC1CCC(c2cccnc2)O1 (stereo not given)	0.76 nmol/min/mg
